Assay results: the supplement of paper PMC10307832

Key:
Assay in all cases: relative viability (nuclei count vs DMSO), 5 days (fraction); higher = more cells survive
Everolimus + Lapatinib = compound: CO[C@H]1C[C@@H]2CC[C@@H](C)[C@@](O)(O2)C(=O)C(=O)N2CCCC[C@H]2C(=O)O[C@H]([C@H](C)C[C@@H]2CC[C@@H](OCCO)[C@H](OC)C2)CC(=O)[C@H](C)/C=C(\C)[C@@H](O)[C@@H](OC)C(=O)[C@H](C)C[C@H](C)/C=C/C=C/C=C/1C [Everolimus] + CS(=O)(=O)CCNCc1ccc(-c2ccc3ncnc(Nc4ccc(OCc5cccc(F)c5)c(Cl)c4)c3c2)o1 [Lapatinib] (partner 2 µM)
In short: (§1)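 Five library-drug doses in √10 steps were combined with a fixed anchor-drug dose, or a single drug was given alone, by pin tool to lung cancer cell lines in 1536-well plates the day after seeding. Nuclei were stained and counted after 5 days. Relative viability is the nuclei count in treated wells over that in vehicle wells, taken as the median of duplicate plates.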

Everolimus + Trametinib = compound: CO[C@H]1C[C@@H]2CC[C@@H](C)[C@@](O)(O2)C(=O)C(=O)N2CCCC[C@H]2C(=O)O[C@H]([C@H](C)C[C@@H]2CC[C@@H](OCCO)[C@H](OC)C2)CC(=O)[C@H](C)/C=C(\C)[C@@H](O)[C@@H](OC)C(=O)[C@H](C)C[C@H](C)/C=C/C=C/C=C/1C [Everolimus] + CC(=O)Nc1cccc(-n2c(=O)n(C3CC3)c(=O)c3c(Nc4ccc(I)cc4F)n(C)c(=O)c(C)c32)c1 [Trametinib] (partner 0.02 µM)
In short: as §1

Everolimus + Olaparib = compound: CO[C@H]1C[C@@H]2CC[C@@H](C)[C@@](O)(O2)C(=O)C(=O)N2CCCC[C@H]2C(=O)O[C@H]([C@H](C)C[C@@H]2CC[C@@H](OCCO)[C@H](OC)C2)CC(=O)[C@H](C)/C=C(\C)[C@@H](O)[C@@H](OC)C(=O)[C@H](C)C[C@H](C)/C=C/C=C/C=C/1C [Everolimus] + O=C(c1cc(Cc2n[nH]c(=O)c3ccccc23)ccc1F)N1CCN(C(=O)C2CC2)CC1 [Olaparib] (partner 8 µM)
In short: as §1

Everolimus + Phenformin = compound: CO[C@H]1C[C@@H]2CC[C@@H](C)[C@@](O)(O2)C(=O)C(=O)N2CCCC[C@H]2C(=O)O[C@H]([C@H](C)C[C@@H]2CC[C@@H](OCCO)[C@H](OC)C2)CC(=O)[C@H](C)/C=C(\C)[C@@H](O)[C@@H](OC)C(=O)[C@H](C)C[C@H](C)/C=C/C=C/C=C/1C [Everolimus] + N=C(N)NC(=N)NCCc1ccccc1 [Phenformin] (partner 250 µM)
In short: as §1

Row | Cell Line | relative viability (Everolimus + Lapatinib; first compound 0.01 µM) | relative viability (Everolimus + Lapatinib; first compound 0.03162 µM) | relative viability (Everolimus + Lapatinib; first compound 0.1 µM) | relative viability (Everolimus + Lapatinib; first compound 0.3162 µM) | relative viability (Everolimus + Lapatinib; first compound 1 µM) | relative viability (Everolimus + Trametinib; first compound 0.01 µM) | relative viability (Everolimus + Trametinib; first compound 0.03162 µM) | relative viability (Everolimus + Trametinib; first compound 0.1 µM) | relative viability (Everolimus + Trametinib; first compound 0.3162 µM) | relative viability (Everolimus + Trametinib; first compound 1 µM) | relative viability (Everolimus + Olaparib; first compound 0.01 µM) | relative viability (Everolimus + Olaparib; first compound 0.03162 µM) | relative viability (Everolimus + Olaparib; first compound 0.1 µM) | relative viability (Everolimus + Olaparib; first compound 0.3162 µM) | relative viability (Everolimus + Olaparib; first compound 1 µM) | relative viability (Everolimus + Phenformin; first compound 0.01 µM) | relative viability (Everolimus + Phenformin; first compound 0.03162 µM) | relative viability (Everolimus + Phenformin; first compound 0.1 µM) | relative viability (Everolimus + Phenformin; first compound 0.3162 µM) | relative viability (Everolimus + Phenformin; first compound 1 µM)
1 | COR-L 105 | 0.351 | 0.288 | 0.316 | 0.38 | 0.262 | 0.424 | 0.389 | 0.378 | 0.455 | 0.424 | 0.649 | 0.627 | 0.497 | 0.581 | 0.516 | 0.356 | 0.387 | 0.388 | 0.435 | 0.361
2 | LK-2 | 0.664 | 0.533 | 0.787 | 0.471 | 0.449 | 0.688 | 0.468 | 0.425 | 0.421 | 0.438 | 0.594 | 0.603 | 0.413 | 0.403 | 0.351 | 0.299 | – | 0.154 | 0.166 | 0.233
3 | NCI-H727 | 0.435 | 0.543 | 0.402 | 0.527 | 0.561 | 0.433 | 0.385 | 0.337 | 0.363 | 0.342 | 0.719 | 0.673 | 0.569 | 0.524 | 0.755 | 0.462 | 0.457 | – | 0.485 | 0.368
4 | RERF-LC-KJ | 0.636 | 0.597 | 0.503 | 0.487 | 0.486 | 0.654 | 0.613 | 0.495 | 0.494 | 0.524 | 0.666 | 0.61 | 0.593 | 0.605 | 0.606 | 0.377 | 0.426 | 0.377 | 0.381 | 0.376
5 | NCI-H2023 | 0.604 | 0.456 | 0.378 | 0.616 | 0.314 | 0.259 | 0.216 | 0.247 | 0.187 | 0.225 | 0.276 | 0.294 | 0.253 | 0.256 | 0.296 | 0.309 | 0.375 | 0.343 | 0.277 | 0.266
6 | NCI-H322M | 0.547 | 0.545 | 0.601 | 0.526 | 0.508 | 0.474 | 0.504 | 0.495 | 0.463 | 0.484 | 0.723 | 0.686 | 0.742 | 0.704 | 0.73 | 0.647 | 0.658 | 0.629 | 0.714 | 0.701
7 | NCI-H1666 | 0.459 | 0.445 | 0.335 | 0.45 | 0.475 | 0.832 | 0.911 | 0.867 | 0.851 | 0.705 | 0.725 | 0.779 | 0.781 | 0.731 | 0.823 | 0.555 | 0.575 | 0.617 | 0.577 | 0.539
8 | SW 900 | – | – | – | – | – | 0.604 | 0.733 | 0.536 | 0.717 | 0.432 | 0.801 | 0.744 | 0.814 | 0.656 | 0.649 | 0.43 | 0.492 | 0.371 | 0.324 | 0.45
9 | NCI-H2087 | 1.2 | 1.05 | 0.824 | 0.848 | 1.05 | 0.158 | 0.137 | 0.185 | 0.161 | 0.143 | 0.491 | 0.444 | 0.524 | 0.465 | 0.508 | 0.41 | 0.317 | 0.423 | 0.351 | 0.41
10 | LU99A | 0.621 | 0.548 | 0.573 | 0.52 | 0.55 | 0.35 | 0.268 | 0.298 | 0.314 | 0.354 | 0.246 | 0.21 | 0.226 | 0.216 | 0.236 | 0.665 | 0.662 | 0.605 | 0.503 | 0.587
11 | HCC-366 | 0.89 | 1.11 | 0.994 | 0.992 | 0.589 | 0.258 | 0.245 | 0.257 | 0.227 | 0.225 | 0.337 | 0.271 | 0.302 | 0.27 | 0.284 | 0.59 | 0.613 | 0.601 | 0.528 | 0.582
12 | EKVX | 0.158 | 0.161 | 0.159 | 0.171 | 0.161 | – | 0.294 | 0.257 | 0.268 | 0.382 | – | 0.493 | 0.494 | 0.561 | 0.558 | 0.242 | 0.22 | 0.22 | 0.222 | 0.25
13 | NCI-H2342 | – | – | – | – | – | 0.649 | 0.54 | 0.482 | 0.468 | 0.583 | 0.385 | 0.363 | 0.304 | 0.333 | 0.36 | 0.436 | 0.34 | 0.352 | 0.411 | 0.49
14 | NCI-H1755 | 0.866 | 0.964 | 0.769 | 0.876 | 0.77 | 0.666 | 0.579 | 0.553 | 0.545 | 0.453 | 0.764 | 0.592 | 0.697 | 0.556 | 0.588 | 0.583 | 0.639 | 0.476 | 0.547 | 0.487
15 | NCI-H647 | 0.583 | 0.562 | 0.505 | 0.536 | 0.87 | 0.258 | 0.318 | 0.288 | 0.252 | 0.293 | 0.268 | 0.303 | 0.199 | 0.176 | 0.368 | 0.317 | 0.395 | 0.338 | 0.36 | 0.537
